In patent publication US20100311133A1, “ELECTRODE, ENZYME SENSOR USING THE ELECTRODE, FUEL BATTERY, ELECTRONIC DEVICE, AND METHOD FOR DECOMPOSING POLYOL” (SONY CORPORATION, priority 2007, published 2010):

Experiments:
Aldehyde reductase = assay: Amount of NADH generated from polyol substrates by aldehyde reductase (Example 3); assay type: biochemical, Candida; conditions: substrate 100 mmol/L; NAD+ 1.3 mg/mL; enzyme 2.5 μ/mL; 25° C.; relative to alcohol dehydrogenase with ethylene glycol = 100
Source text: (§1) To be more specific, an alcohol dehydrogenase and an aldehyde reductase were allow to act with each substrate and the amount of NADH generated was comparatively investigated.
(§2) Individual relative values are indicated as relative values by assuming the amount of NADH generated from action of the alcohol dehydrogenase with ethylene glycol to be 100.

Alcohol dehydrogenase = molecular target: T1, Alcohol dehydrogenase (Saccharomyces cerevisiae, UniProt P00330); assay: Amount of NADH generated from polyol substrates by alcohol dehydrogenase (Example 3); assay type: biochemical, yeast; conditions: substrate 100 mmol/L; NAD+ 1.3 mg/mL; enzyme 2.5 μ/mL; 25° C.; relative to alcohol dehydrogenase with ethylene glycol = 100
T1 construct: purchased Wako Pure Chemical Industries, Ltd
T1 sequence (P00330 1-348): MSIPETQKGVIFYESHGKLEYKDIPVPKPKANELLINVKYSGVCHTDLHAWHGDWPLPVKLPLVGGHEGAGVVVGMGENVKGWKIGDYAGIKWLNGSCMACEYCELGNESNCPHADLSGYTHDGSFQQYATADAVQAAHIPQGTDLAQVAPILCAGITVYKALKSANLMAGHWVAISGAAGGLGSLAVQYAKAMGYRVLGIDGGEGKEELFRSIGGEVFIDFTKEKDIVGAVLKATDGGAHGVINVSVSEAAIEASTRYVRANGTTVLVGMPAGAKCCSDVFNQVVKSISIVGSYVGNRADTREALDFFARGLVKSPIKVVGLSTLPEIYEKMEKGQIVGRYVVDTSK
Source text: as §1, §2

SMILES	Amount of reduced coenzyme generated (relative value %), Aldehyde reductase (Aldehyde reductase)	Amount of reduced coenzyme generated (relative value %), Alcohol dehydrogenase (Alcohol dehydrogenase)
OC[C@@H](O)[C@@H](O)CO [Erythritol, erythritol]	50%	6.0%
OCCO [Ethylene glycol, ethylene glycol]	4.0%	100%
OCC(O)CO [Glycerol, glycerol]	7.0%	0.6%
OC[C@@H](O)[C@@H](O)[C@H](O)[C@@H](O)CO [Sorbitol, sorbitol]	100%	0.7%
OC[C@@H](O)[C@H](O)[C@@H](O)CO [Xylitol, xylitol]	34%	0.4%
